Results reported in PubChem BioAssay AID1963965 (Molecular Pharmacology Branch, DTP, NCI, 2024).

System: 996289-038-R-J1-PDC spheroid viability
Assay: Anticancer human tumor 996289-038-R-J1-PDC patient-derived colon adenocarcinoma cell line growth inhibition [PI3K]
Details: spheroids with HUVEC and MSC; for IC50: curve of first compound; for viability, T/C: stronger effect = lower value; active means viability on the fitted dose curve at most 10% of control; inactive means the rest
How it was run: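 Three cell types, namely tumor cells, endothelial cells and mesenchymal stem cells, formed each spheroid. Combinations with four PI3K inhibitors were screened at clinically achievable concentrations decreasing by half-log, and spheroid viability was recorded.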

[1] = second compound 0.00316 µM, first compound 0.0316 µM
[2] = second compound 0.00316 µM, first compound 0.1 µM
[3] = second compound 0.00316 µM, first compound 0.316 µM
[4] = second compound 0.00316 µM, first compound 1 µM
[5] = second compound 0.00316 µM, first compound 3.16 µM
[6] = second compound 0.00316 µM, first compound 10 µM
[7] = second compound 0.01 µM, first compound 0.0316 µM
[8] = second compound 0.01 µM, first compound 0.1 µM
[9] = second compound 0.01 µM, first compound 0.316 µM
[10] = second compound 0.01 µM, first compound 1 µM
[11] = second compound 0.01 µM, first compound 3.16 µM
[12] = second compound 0.01 µM, first compound 10 µM
[13] = second compound 0.0316 µM, first compound 0.0316 µM
[14] = second compound 0.0316 µM, first compound 0.1 µM
[15] = second compound 0.0316 µM, first compound 0.316 µM
[16] = second compound 0.0316 µM, first compound 1 µM
[17] = second compound 0.0316 µM, first compound 3.16 µM
[18] = second compound 0.0316 µM, first compound 10 µM
[19] = second compound 0.1 µM, first compound 0.0316 µM
[20] = second compound 0.1 µM, first compound 0.1 µM
[21] = second compound 0.1 µM, first compound 0.316 µM
[22] = second compound 0.1 µM, first compound 1 µM
[23] = second compound 0.1 µM, first compound 3.16 µM
[24] = second compound 0.1 µM, first compound 10 µM
[25] = second compound 0.316 µM, first compound 0.0316 µM
[26] = second compound 0.316 µM, first compound 0.1 µM
[27] = second compound 0.316 µM, first compound 0.316 µM
[28] = second compound 0.316 µM, first compound 1 µM
[29] = second compound 0.316 µM, first compound 3.16 µM
[30] = second compound 0.316 µM, first compound 10 µM
[31] = second compound 1 µM, first compound 0.0316 µM
[32] = second compound 1 µM, first compound 0.1 µM
[33] = second compound 1 µM, first compound 0.316 µM
[34] = second compound 1 µM, first compound 1 µM
[35] = second compound 1 µM, first compound 3.16 µM
[36] = second compound 1 µM, first compound 10 µM
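Further: spheroids exposed to compounds for seven days before viability read.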
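Wherever viability, T/C is given: luminescence used as a proxy for viable cell amount; percent viability relative to DMSO vehicle control as 100%.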

CC1(C)CCC(CN2CCN(c3ccc(C(=O)NS(=O)(=O)c4ccc(NCC5CCOCC5)c([N+](=O)[O-])c4)c(Oc4cnc5[nH]ccc5c4)c3)CC2)=C(c2ccc(Cl)cc2)C1 + COc1c(OCCCN2CCOCC2)ccc2c3n(c(=NC(=O)c4cnc(N)nc4)nc12)CCN3
7.54 µM: IC50 (second compound 0.00316 µM)
inactive: viability, T/C [1] 88.5% | viability, T/C [2] 97.1% | viability, T/C [3] 94.2% | viability, T/C [4] 110% | viability, T/C [5] 106% | viability, T/C [6] 34% | viability, T/C [7] 95.6% | viability, T/C [8] 88.6% | viability, T/C [9] 84.2% | viability, T/C [10] 97.7% | viability, T/C [11] 103% | viability, T/C [12] 37.6% | viability, T/C [13] 81.3% | viability, T/C [14] 84.2% | viability, T/C [15] 72.9% | viability, T/C [16] 86.1% | viability, T/C [17] 90.5% | viability, T/C [18] 19.7% | viability, T/C [19] 65% | viability, T/C [20] 62.5% | viability, T/C [21] 62.8% | viability, T/C [22] 59.5% | viability, T/C [23] 65.2% | viability, T/C [24] 10.3% | viability, T/C [25] 40.4% | viability, T/C [26] 36.2% | viability, T/C [27] 33.9% | viability, T/C [28] 36.9% | viability, T/C [29] 38.6% | viability, T/C [30] 11.3% | viability, T/C [31] 19.5% | viability, T/C [32] 19.5% | viability, T/C [33] 21.1% | viability, T/C [34] 23.3% | viability, T/C [35] 18.8% | viability, T/C [36] 6.87%
5.77 µM: IC50 (second compound 0.0316 µM)
< 0.0316 µM: IC50 (second compound 0.316 µM) | IC50 (second compound 1 µM)
7.76 µM: IC50 (second compound 0.01 µM)
4.2 µM: IC50 (second compound 0.1 µM)

C[C@@H](NC(=O)c1ncnc(N)c1Cl)c1ncc(C(=O)Nc2cc(C(F)(F)F)c(Cl)cn2)s1 + COc1c(OCCCN2CCOCC2)ccc2c3n(c(=NC(=O)c4cnc(N)nc4)nc12)CCN3
inactive: viability, T/C [1] 89.7% | viability, T/C [2] 88% | viability, T/C [3] 95.1% | viability, T/C [4] 112% | viability, T/C [5] 131% | viability, T/C [6] 136% | viability, T/C [7] 96.6% | viability, T/C [8] 87% | viability, T/C [9] 96.2% | viability, T/C [10] 116% | viability, T/C [11] 98% | viability, T/C [12] 109% | viability, T/C [13] 94.3% | viability, T/C [14] 78.9% | viability, T/C [15] 86.7% | viability, T/C [16] 81.9% | viability, T/C [17] 92.7% | viability, T/C [18] 77.8% | viability, T/C [19] 68.7% | viability, T/C [20] 57.1% | viability, T/C [21] 69.2% | viability, T/C [22] 67.7% | viability, T/C [23] 71.3% | viability, T/C [24] 58.7% | viability, T/C [25] 42% | viability, T/C [26] 36.2% | viability, T/C [27] 35.7% | viability, T/C [28] 52.9% | viability, T/C [29] 43.3% | viability, T/C [30] 37.3% | viability, T/C [31] 22.3% | viability, T/C [32] 16.1% | viability, T/C [33] 19.3% | viability, T/C [34] 21.7% | viability, T/C [35] 29% | viability, T/C [36] 22.6%
< 0.0316 µM: IC50 (second compound 0.316 µM) | IC50 (second compound 1 µM)
> 10 µM: IC50 (second compound 0.00316 µM) | IC50 (second compound 0.01 µM) | IC50 (second compound 0.0316 µM) | IC50 (second compound 0.1 µM)
